Converted amounts (≈) assume the structure as drawn. Counter-ions that a name gives are not always drawn.
Tests used:
pKa (66% DMF) = assay type: physicochemical
6C3HED lymphosarcoma = assay: activity against transplanted tumor 6C3HED lymphosarcoma in mice; assay type: in vivo; conditions: intravenous, day one
Method: Certain of the above compounds have also shown activity against a transplanted tumor, 6C3HED lymphosarcoma, in mice. Information as to this activity is summarized in Table 2 in which column 1 gives the name of the compound, column 2, the dose level in mg./kg. and column 3 the percent tumor inhabitation. All compounds were administered on day one by the intravenous route.

[1] = test system: human leukemic cells (CCRF-CEM cell line); assay: C.C.R.F.-C.E.M. Cytotoxicity Assay, growth inhibition of human leukemic cells; assay type: cell-based; conditions: read-out: IC50 (concentration giving 50% growth inhibition)
From the text: In the Table, column 1 gives the name of the compound and column 2, the IC50 (concentration giving 50% growth inhibition) in mcg/ml.

growing tumor cells = assay: metaphase arrest, block of growing tumor cells in mitosis; assay type: cell-based; conditions: standard procedures; read-out: concentration at which compound blocked growing tumor cells in mitosis (metaphase arrest)
Method: The compounds of this invention in which Z is OH, NH2, NHNH2, or O--C1-3 alkyl have utility as anti-tumor compounds acti transplanted tumors in mice, as mitotic inhibitors and as cytotoxic agents. As evidence of such utility, the ability of N^2 -succinoyl 4-desacetyl VLB 3-carboxhydrazide methyl ester sulfate to cause metaphase arrest was measured by standard procedures.

[2] = test system: vincristine-resistant leukemias; conditions: marketed oncolytic agent; cited from earlier work

CC[C@]1(O)C[C@@H]2CN(CCc3c([nH]c4ccccc34)[C@@](C(=O)OC)(c3cc4c(cc3OC)N(C)[C@H]3[C@@](O)(C(=O)NNC(=O)CCC(=O)O)[C@H](O)[C@]5(CC)C=CCN6CC[C@]43[C@@H]65)C2)C1 [Example 1, N^2 -Succinoyl-4-desacetyl VLB 3-carboxhydrazide]
pKa (pKa (66% DMF)): 5.1

CC[C@]1(O)C[C@@H]2CN(CCc3c([nH]c4ccccc34)[C@@](C(=O)OC)(c3cc4c(cc3OC)N(C)[C@H]3[C@@](O)(C(=O)NNC(=O)CCCC(=O)O)[C@H](O)[C@]5(CC)C=CCN6CC[C@]43[C@@H]65)C2)C1 [Example 8, N^2 -Glutaroyl 4-desacetyl VLB 3-carboxhydrazide]
pKa (pKa (66% DMF)): 4.8

CC[C@]1(O)C[C@@H]2CN(CCc3c([nH]c4ccccc34)[C@@](C(=O)OC)(c3cc4c(cc3OC)N(C)[C@H]3[C@@](O)(C(=O)NNC(=O)CCC(=O)O)[C@H](O)[C@]5(CC)C=CCN6CC[C@]43[C@@H]65)C2)C1 [N^2 --Succinoyl 4-desacetyl VLB 3-carboxhydrazide sulfate]
% Tumor Inhibition (6C3HED lymphosarcoma; 0.625 mg/kg): 13%
% Tumor Inhibition (6C3HED lymphosarcoma; 1.25 mg/kg): 5%
% Tumor Inhibition (6C3HED lymphosarcoma; 2.5 mg/kg): 5%
% Tumor Inhibition (6C3HED lymphosarcoma; 5 mg/kg): 33%
% Tumor Inhibition (6C3HED lymphosarcoma; 10 mg/kg): 77%
% Tumor Inhibition (6C3HED lymphosarcoma; 20 mg/kg): 100%
% Tumor Inhibition (6C3HED lymphosarcoma; 40 mg/kg): 100%

CC[C@]1(O)C[C@@H]2CN(CCc3c([nH]c4ccccc34)[C@@](C(=O)OC)(c3cc4c(cc3OC)N(C)[C@H]3[C@@](O)(C(=O)NNC(=O)CCCCC(=O)OC)[C@H](O)[C@]5(CC)C=CCN6CC[C@]43[C@@H]65)C2)C1 [N^2-adipoyl-4-desacetyl VLB 3-carboxyhydrazide methylester]
IC50 [1]: 0.4 µg/mL (≈ 0.439 µM)

CC[C@]1(O)C[C@@H]2CN(CCc3c([nH]c4ccccc34)[C@@](C(=O)OC)(c3cc4c(cc3OC)N(C)[C@H]3[C@@](O)(C(=O)NNC(=O)CCCC(=O)O)[C@H](O)[C@]5(CC)C=CCN6CC[C@]43[C@@H]65)C2)C1 [N^2-glutaroyl 4-desacetyl VLB 3-carboxhydrazide sulfate]
IC50 [1]: 0.1 µg/mL

CC[C@]1(O)C[C@@H]2CN(CCc3c([nH]c4ccccc34)[C@@](C(=O)OC)(c3cc4c(cc3OC)N(C)[C@H]3[C@@](O)(C(=O)NNC(=O)CCC(=O)OC)[C@H](O)[C@]5(CC)C=CCN6CC[C@]43[C@@H]65)C2)C1 [N^2-succinoyl 4-desacetyl VLB 3-carboxhydrazide methyl ester]
% Tumor Inhibition (6C3HED lymphosarcoma; 1 mg/kg): 100%
% Tumor Inhibition (toxic dose) (6C3HED lymphosarcoma; 2 mg/kg): Toxic
% Tumor Inhibition (toxic dose) (6C3HED lymphosarcoma; 4 mg/kg): Toxic
% Tumor Inhibition (6C3HED lymphosarcoma; .5 mg/kg): 100%
minimal effective concentration (growing tumor cells): 0.2 µg/mL

CC[C@]1(O)C[C@@H]2CN(CCc3c([nH]c4ccccc34)[C@@](C(=O)OC)(c3cc4c(cc3OC)N(C)[C@H]3[C@@](O)(C(N)=O)[C@H](O)[C@]5(CC)C=CCN6CC[C@]43[C@@H]65)C2)C1 [vindesine, 4-desacetyl VLB 3-carboxamide]
effectiveness in treating leukemias and neoplasms [2]: effective in treating some vincristine-resistant leukemias in addition to many common neoplasms including germ-cell tumors

From US4675400A, “Bifunctional derivatives of 4-desacetyl indole-dihydroindole alkaloids” (Eli Lilly and Company, priority 1985, dated 1987)
